From the supplement of paper PMC10307832

Tests used:
Assay in all cases: relative viability (nuclei count vs DMSO), 5 days (fraction); higher = more cells survive
MK-2206 + Pemetrexed = compound: NC1(c2ccc(-c3nc4ccn5c(=O)[nH]nc5c4cc3-c3ccccc3)cc2)CCC1 [MK-2206] + Nc1nc2[nH]cc(CCc3ccc(C(=O)N[C@@H](CCC(=O)O)C(=O)O)cc3)c2c(=O)[nH]1 [Pemetrexed] (partner 0.2 µM)
How it was run: (§1)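 A single step with final 0.05% Triton X-100, 1% formaldehyde and 1 ug/ml Hoechst fixed the cells and stained nuclei 5 days after treatment. Lung cancer cell lines in 1536-well plates had been treated by pin tool the day after seeding with one drug alone or a fixed anchor-drug dose plus five library-drug doses (not always all listed) in √10 steps, and nuclei were counted on 4× images. Relative viability is the ratio of nuclei in treated wells to nuclei in vehicle wells, taken as the median of duplicate plates.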

Pictilisib + Linsitinib = compound: CS(=O)(=O)N1CCN(Cc2cc3nc(-c4cccc5[nH]ncc45)nc(N4CCOCC4)c3s2)CC1 [Pictilisib] + C[C@]1(O)C[C@@H](c2nc(-c3ccc4ccc(-c5ccccc5)nc4c3)c3c(N)nccn32)C1 [Linsitinib] (partner 1 µM)
How it was run: as §1

Pictilisib + Crizotinib = compound: CS(=O)(=O)N1CCN(Cc2cc3nc(-c4cccc5[nH]ncc45)nc(N4CCOCC4)c3s2)CC1 [Pictilisib] + C[C@@H](Oc1cc(-c2cnn(C3CCNCC3)c2)cnc1N)c1c(Cl)ccc(F)c1Cl [Crizotinib] (partner 1 µM)
How it was run: as §1

MK-2206 + Crizotinib = compound: NC1(c2ccc(-c3nc4ccn5c(=O)[nH]nc5c4cc3-c3ccccc3)cc2)CCC1 [MK-2206] + C[C@@H](Oc1cc(-c2cnn(C3CCNCC3)c2)cnc1N)c1c(Cl)ccc(F)c1Cl [Crizotinib] (partner 1 µM)
How it was run: as §1

MK-2206 + Decitabine = compound: NC1(c2ccc(-c3nc4ccn5c(=O)[nH]nc5c4cc3-c3ccccc3)cc2)CCC1 [MK-2206] + Nc1ncn([C@H]2C[C@H](O)[C@@H](CO)O2)c(=O)n1 [Decitabine] (partner 2 µM)
How it was run: as §1

| Cell Line | relative viability (MK-2206 + Pemetrexed; first compound 0.01 µM) | relative viability (MK-2206 + Pemetrexed; first compound 0.03162 µM) | relative viability (MK-2206 + Pemetrexed; first compound 0.3162 µM) | relative viability (MK-2206 + Pemetrexed; first compound 1 µM) | relative viability (Pictilisib + Linsitinib; first compound 0.02 µM) | relative viability (Pictilisib + Linsitinib; first compound 0.06325 µM) | relative viability (Pictilisib + Linsitinib; first compound 0.6325 µM) | relative viability (Pictilisib + Linsitinib; first compound 2 µM) | relative viability (Pictilisib + Crizotinib; first compound 0.02 µM) | relative viability (Pictilisib + Crizotinib; first compound 0.06325 µM) | relative viability (Pictilisib + Crizotinib; first compound 0.6325 µM) | relative viability (Pictilisib + Crizotinib; first compound 2 µM) | relative viability (MK-2206 + Crizotinib; first compound 0.01 µM) | relative viability (MK-2206 + Crizotinib; first compound 0.03162 µM) | relative viability (MK-2206 + Crizotinib; first compound 0.3162 µM) | relative viability (MK-2206 + Crizotinib; first compound 1 µM) | relative viability (MK-2206 + Decitabine; first compound 0.01 µM) | relative viability (MK-2206 + Decitabine; first compound 0.03162 µM) | relative viability (MK-2206 + Decitabine; first compound 0.3162 µM) | relative viability (MK-2206 + Decitabine; first compound 1 µM) |
| --- | --- | --- | --- | --- | --- | --- | --- | --- | --- | --- | --- | --- | --- | --- | --- | --- | --- | --- | --- | --- |
| NCI-H1437 | 0.321 | 0.325 | 0.334 | 0.258 | 0.975 | 1.05 | 0.662 | 0.447 | 0.941 | 0.952 | 1.03 | 0.652 | 0.852 | 0.938 | 0.914 | 0.997 | 0.603 | 0.559 | 0.562 | 0.521 |
| A-427 | 1.03 | 0.925 | 1.07 | 1.05 | 1.11 | 1.13 | 1.1 | 1.08 | 0.979 | 0.829 | 0.908 | 0.603 | 0.896 | 0.824 | 0.742 | 0.893 | 0.6 | 0.603 | 0.562 | 0.567 |
| HCC-366 | 0.154 | 0.166 | 0.302 | 0.266 | 0.776 | 0.448 | 0.256 | 0.0873 | 0.493 | 0.697 | 0.251 | 0.0577 | 0.48 | 0.532 | 0.452 | 0.442 | 0.358 | 0.334 | 0.339 | 0.32 |
| BEN | 0.736 | 0.767 | 0.679 | 0.697 | 0.948 | 0.891 | 0.947 | 0.683 | 0.8 | 1.07 | 0.817 | 0.58 | 0.906 | 0.956 | 0.913 | 0.908 | 0.909 | 0.673 | 0.679 | 0.643 |
| NCI-H2347 | 0.408 | 0.44 | 0.433 | 0.45 | 1.02 | 1.08 | 1.1 | 0.933 | 0.695 | 0.496 | 0.592 | 0.545 | 0.733 | 0.761 | 0.708 | 0.67 | 0.585 | 0.573 | 0.591 | 0.557 |
